{"source": "patent US20030235851A1", "about": "“Methods of using sense and/or nonsense suppression to make nucleic acid-peptide display libraries containing peptides with unnatural amino acid residues” (priority 2002, published 2003)", "key": {"[1]": {"biological_target": "T1, PBP2a (Staphylococcus aureus, UniProt P07944)", "T1 sequence (P07944 whole entry)": "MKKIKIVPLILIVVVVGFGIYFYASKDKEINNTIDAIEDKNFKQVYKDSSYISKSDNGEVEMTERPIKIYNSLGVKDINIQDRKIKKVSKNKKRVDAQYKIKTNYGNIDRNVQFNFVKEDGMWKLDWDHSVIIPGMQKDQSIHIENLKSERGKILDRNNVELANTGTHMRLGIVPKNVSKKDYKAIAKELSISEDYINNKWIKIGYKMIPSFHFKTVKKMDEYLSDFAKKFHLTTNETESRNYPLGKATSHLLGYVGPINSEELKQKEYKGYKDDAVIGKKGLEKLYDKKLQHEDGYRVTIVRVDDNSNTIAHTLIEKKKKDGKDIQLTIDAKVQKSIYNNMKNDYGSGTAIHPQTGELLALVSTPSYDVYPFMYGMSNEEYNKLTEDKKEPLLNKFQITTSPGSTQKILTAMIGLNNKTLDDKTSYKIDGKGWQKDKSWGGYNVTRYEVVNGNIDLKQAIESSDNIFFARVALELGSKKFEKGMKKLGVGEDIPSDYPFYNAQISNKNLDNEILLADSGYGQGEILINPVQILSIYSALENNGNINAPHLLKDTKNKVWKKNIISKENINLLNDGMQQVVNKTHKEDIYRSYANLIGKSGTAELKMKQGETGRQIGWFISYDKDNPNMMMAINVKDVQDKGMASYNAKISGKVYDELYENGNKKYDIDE", "assay": "Relative IC50 competition assay of peptide penicillanate conjugates against PBP2a (biotinylated ampicillin)", "assay_type": "binding", "design": "This part was cleaved off with DTT before the test", "description": "Relative IC50 Assay of Peptide Penicillanate Conjugates\nVarious concentration of conjugates were prepared by dissolving in reaction buffer (50 mM phosphate, pH=8.0; 100 mM NaCl) and incubating with 2 Vg pure PBP2a respectively at 37° C. for 15 min. 20 μg biotinylated ampicillin was added immediately and incubated at 37° C. for 10 min. The reaction was stopped by heating the reaction mixture at 94° C. for 5 min. The samples were loaded into 12% SDS-PAGE for separation, then were transferred to a nitrocellulose membrane by blotting with sodium bicarbonate buffer (20% methanol; 3 mM Na2CO3; 10 mM NaHCO3) at 400 mA for 3 hr. The membrane was blocked with blocking solution (20 mM Tris, pH=8.0; 150 mM NaCl; 0.05% TWEEN-20 detergent; 5% milk) for 1 hr, then incubated with 10 ml TBS buffer (20 mM Tris, pH=8.0; 150 mM NaCl) containing 1 μg/ml streptavidin-HRP protein (Pierce Chemical) at room temperature for 1 hr. The membrane was washed 6 times with 50 ml TBS buffer, at 5 min intervals, and covered with FEMTO-WESTERN blotting reagent (Pierce Chemical). The membrane was then examined under a digital camera at dark to collect chemiluminescent emission for 10-15 min."}, "[2]": {"biological_target": "Grb2 N terminal SH3 domain (Homo sapiens, UniProt P62993)", "sequence (P62993 1-58 limits assumed)": "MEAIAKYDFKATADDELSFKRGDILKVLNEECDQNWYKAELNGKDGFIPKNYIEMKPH", "details": "substitution for proline at P2 and P−1; cited from earlier work"}, "[3]": {"biological_target": "Crk N terminal SH3 domain (Homo sapiens, UniProt P46108)", "sequence (P46108 132-192 limits assumed)": "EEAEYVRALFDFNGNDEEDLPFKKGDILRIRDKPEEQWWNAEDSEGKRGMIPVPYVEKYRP", "details": "substitution for proline at P2 and P−1; cited from earlier work"}, "[4]": {"biological_target": "T1, PBP2a", "details": "cited from earlier work"}, "[5]": {"biological_target": "translation complex A site", "details": "ribosome; cited from earlier work"}, "[6]": {"biological_target": "penicillin-binding protein 2a (PBP2a) (Staphylococcus aureus (MRSA)) (UniProt P07944)", "sequence (P07944 23-670)": "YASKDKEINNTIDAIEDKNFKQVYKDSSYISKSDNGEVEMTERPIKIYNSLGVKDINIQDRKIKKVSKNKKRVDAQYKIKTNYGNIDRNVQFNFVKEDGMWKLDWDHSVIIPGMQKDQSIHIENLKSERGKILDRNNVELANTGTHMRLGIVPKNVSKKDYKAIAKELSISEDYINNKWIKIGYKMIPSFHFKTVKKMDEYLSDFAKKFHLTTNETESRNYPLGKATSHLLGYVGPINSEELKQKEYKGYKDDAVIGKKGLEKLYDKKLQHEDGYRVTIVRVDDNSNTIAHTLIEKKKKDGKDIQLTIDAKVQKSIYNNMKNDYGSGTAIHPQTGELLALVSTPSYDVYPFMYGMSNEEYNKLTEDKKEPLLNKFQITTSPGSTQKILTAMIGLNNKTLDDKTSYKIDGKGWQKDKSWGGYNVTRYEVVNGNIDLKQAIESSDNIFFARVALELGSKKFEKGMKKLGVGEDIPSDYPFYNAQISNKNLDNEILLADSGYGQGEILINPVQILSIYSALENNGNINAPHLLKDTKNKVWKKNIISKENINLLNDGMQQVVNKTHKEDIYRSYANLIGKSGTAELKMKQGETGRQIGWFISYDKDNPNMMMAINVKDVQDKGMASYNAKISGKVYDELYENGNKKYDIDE", "assay": "relative IC50: competition with biotinylated ampicillin for labelling of pure PBP2a, streptavidin-HRP blot"}, "[7]": {"biological_target": "penicillin-binding protein 2a (PBP2a) (Staphylococcus aureus (MRSA)) (UniProt P07944)", "assay": "relative IC50: conjugate pre-incubated with pure PBP2a 15 min at 37 C, then competition with biotinylated ampicillin, SDS-PAGE and streptavidin-HRP blot"}, "[8]": {"biological_target": "penicillin-binding protein 2a (PBP2a) (Staphylococcus aureus (MRSA)) (UniProt P07944)", "assay": "ratio of relative IC50 values against the 6-aminopenicillanic acid reference, biotinylated ampicillin competition on PBP2a"}}, "note": "Peptide text beside a SMILES is read from it. * marks the point of attachment. X1 = CC1(C)S[C@@H]2[C@H](NC(=O)C*)C(=O)N2[C@H]1C(=O)O; Carboxymethyl = O=C(O)C*"}
{"molecule": "CC[C@H](C)[C@H](NC(=O)[C@H](CSCC(=O)N[C@@H]1C(=O)N2[C@@H]1SC(C)(C)[C@@H]2C(=O)O)NC(=O)[C@H](CC(N)=O)NC(=O)[C@H](CO)NC(=O)[C@H](CC(N)=O)NC(=O)[C@H](CCCNC(=N)N)NC(=O)[C@@H](N)CC(C)C)C(=O)N[C@@H](CCCNC(=N)N)C(=O)N[C@@H](Cc1c[nH]cn1)C(=O)N[C@@H](Cc1ccccc1)C(=O)N[C@@H](Cc1ccccc1)C(=O)O", "note": "[LRNSNC(pen)IRHFF] (H-LRNSNC(X1)IRHFF-OH; N-terminus and C-terminus assumed)", "values": [{"measurement": "improvement as compared to 6-APA", "setting": "[1]; PBP2a inhibition", "result": "about 100 fold"}]}
{"molecule": "CNCC(=O)O", "note": "[N-methyl glycine]", "values": [{"measurement": "change in the binding", "setting": "[2]", "result": "little change"}, {"measurement": "change in the binding", "setting": "[3]", "result": "little change"}]}
{"molecule": "CC1(C)S[C@@H]2[C@H](NC(=O)Cc3ccccc3)C(=O)N2[C@H]1C(=O)O", "note": "[benzyl penicillin]", "values": [{"measurement": "rate constant for covalent attachment to PBP2a (k2)", "setting": "[4]", "result": 0.22, "unit": "s⁻¹"}]}
{"molecule": "COc1cccc(OC)c1C(=O)N[C@@H]1C(=O)N2[C@@H]1SC(C)(C)[C@@H]2C(=O)O", "note": "[methicillin]", "values": [{"measurement": "rate constant for covalent attachment to PBP2a (k2)", "setting": "[4]", "result": 0.0083, "unit": "s⁻¹"}]}
{"molecule": "COc1ccc(C[C@H](N)C(=O)N[C@H]2[C@@H](O)[C@H](n3cnc4c(N(C)C)ncnc43)O[C@@H]2CO)cc1", "note": "[puromycin]", "values": [{"measurement": "Kd", "setting": "[5]", "result": 100, "unit": "µM"}]}
{"molecule": "CC[C@H](C)[C@H](NC(=O)[C@H](CSCC(=O)O)NC(=O)[C@H](CC(N)=O)NC(=O)[C@H](CO)NC(=O)[C@H](CC(N)=O)NC(=O)[C@H](CCCNC(=N)N)NC(=O)[C@@H](N)CC(C)C)C(=O)N[C@@H](CCCNC(=N)N)C(=O)N[C@@H](Cc1c[nH]cn1)C(=O)N[C@@H](Cc1ccccc1)C(=O)N[C@@H](Cc1ccccc1)C(=O)O", "note": "[unmodified peptide] (H-LRNSNC(Carboxymethyl)IRHFF-OH)", "values": [{"measurement": "IC50", "setting": "[1]", "result": "> 35", "unit": "mM"}]}
{"molecule": "LRNSNC(COOH)IRHFF (residues 2-12 of SEQ ID NO: 5) (peptide)", "values": [{"measurement": "IC50", "setting": "[6]", "result": "> 35", "unit": "mM"}]}
{"molecule": "LRNSNC(pen)IRHFF (residues 2-12 of SEQ ID NO: 5) (peptide)", "values": [{"measurement": "IC50", "setting": "[7]", "result": 7, "unit": "mM"}, {"measurement": "fold improvement compared to 6-APA", "setting": "[8]", "result": 100, "unit": "fold"}]}
